Data as given in patent US20090325873A1, “HUMAN GLP-1 MIMETIBODIES, COMPOSITIONS, METHODS AND USES” (CENTOCOR, INC., priority 2006, published 2009).
Where no end group is shown, it is not given here.

Experiments:
RINm cells = assay: Insulin secretion in RINm cells; assay type: cell-based; conditions: peptides 0-5 nM, mimetibodies 5 or 50 nM, ELISA
Procedure: To test the effect of GLP-1 MMB in insulin secretion, RINm cells were treated with increasing concentrations of GLP-1 (7-36) peptide (0-5 nM), exendin-4 peptide (0-5 nM), or various GLP-1 mimetibodies (5 or 50 nM) and the amount of insulin secreted was measured via ELISA. All GLP-1 MMBs tested had activities in stimulating insulin secretion in RINm cells (FIG. 6).

db/db mice = assay: Blood glucose in db/db mice after intravenous dosing; assay type: in vivo; conditions: six week old db/db mice, 0.5-4 hours post-dosing, MMB dose 100-fold lower than peptide dose
Procedure: Blood glucose was monitored 0.5, 1, 2, 3, and 4 hours post-dosing.

wild type mice [1] = assay: Food intake in wild type mice; assay type: in vivo; conditions: single iv GLP-1 MMB 1 mg/kg, exendin-4 0.07 mg/kg
wild type mice [2] = assay: Glucose tolerance test (ipGTT) in wild type mice; assay type: in vivo; conditions: single iv GLP-1 MMB 1 mg/kg, exendin-4 0.07 mg/kg
wild type mice [3] = assay: Gastric emptying in wild type mice; assay type: in vivo; conditions: iv GLP-1 MMB 1 mg/kg, exendin-4 0.07 mg/kg
Procedure: (§1) Materials/Methods: Animals: Male GLP-1R−/− and age matched wild type mice were randomized into three treatment groups (n=5) based on body weight and fasting blood glucose. […] The next morning mice were re-fed for 1 h, food intake was recorded and the mice were deprived of food for the rest of the study. Mice were dosed intravenously as discussed above. Two hours post-dosing mice were euthanized. The stomach was exposed by laparotomy, ligated at both the pylorus and cardia and removed. The stomach content wet weight was measured. Equation 1 was used to calculate the percent of food remaining in the stomach.
(§2) (Stomach Content Wet Weight(g)/Food Intake(g))*100 Equation (1)

GLP-1R−/− mice [4] = assay: Food intake in GLP-1R−/− mice; assay type: in vivo; conditions: single iv GLP-1 MMB 1 mg/kg, exendin-4 0.07 mg/kg
GLP-1R−/− mice [5] = assay: Gastric emptying in GLP-1R−/− mice; assay type: in vivo; conditions: iv GLP-1 MMB 1 mg/kg, exendin-4 0.07 mg/kg
Procedure: as §1, §2

female beagle dogs = assay: Gastric emptying in normal dogs; assay type: in vivo; conditions: lidamidine 0.63 mg/kg sc 60 minutes before the meal; GLP-1 MMB 0.1 mg/kg iv 15 minutes before the meal
Procedure: A gastric cannula was surgically implanted into female beagle dogs (10-15 kg) under general anesthesia and allowed to recover for at least 2 weeks. Dogs were fasted for 24 hours after which water was freely available. The gastric cannula was opened and gastric juice and food remnants were removed with 40-50 ml of lukewarm water. Groups of six dogs were dosed subcutaneously with lidamidine, an alpha2 agonist (0.63 mg/kg), 60 minutes before the meal, a positive control for delay of gastric emptying. […] Five minutes before the meal, the gastric cannula was opened to determine the amount of fluid present in stomach for baseline value and fluid was promptly reintroduced. Then a test meal consisting of 250 ml of a glucose solution (5 g/l) was administered via the cannula and allowed to remain in the stomach for 30 minutes. Gastric contents were drained from the stomach to measure total volume after 30 minutes. […] Glucose concentrations were evaluated for collected samples and used to determine the absolute amount of glucose remaining in the stomach at each time point. The percentage of glucose retained in the stomach was determined from the starting value and the concentration of glucose at each time point and plotted as a function of time. The time at which 50% of the gastric contents were retained was determined by fitting of the curves to a single exponential.

[6] = administered subcutaneously; cited from earlier work

With “GLP-1 (7-36) peptide: wide-type GLP-1 (7-36) peptide (HAEGTFTSDVSSYLEGQAAKEFIAWLVKGR; ends and bridges not checked; UniProt P01275 98-127, looked up)” the “stimulation of insulin secretion in RINm cells” value (RINm cells) was “stimulates insulin release”.

For CC[C@H](C)[C@H](NC(=O)[C@H](Cc1ccccc1)NC(=O)[C@H](CCC(=O)O)NC(=O)[C@H](CCCCN)NC(=O)[C@H](C)NC(=O)[C@H](C)NC(=O)[C@H](CCC(N)=O)NC(=O)CNC(=O)[C@H](CCC(=O)O)NC(=O)[C@H](CC(C)C)NC(=O)[C@H](Cc1ccc(O)cc1)NC(=O)[C@H](CO)NC(=O)[C@H](CO)NC(=O)[C@@H](NC(=O)[C@H](CC(=O)O)NC(=O)[C@H](CO)NC(=O)[C@@H](NC(=O)[C@H](Cc1ccccc1)NC(=O)[C@@H](NC(=O)CNC(=O)[C@H](CCC(=O)O)NC(=O)[C@H](C)NC(=O)[C@@H](N)Cc1c[nH]cn1)[C@@H](C)O)[C@@H](C)O)C(C)C)C(=O)N[C@@H](C)C(=O)N[C@@H](Cc1c[nH]c2ccccc12)C(=O)N[C@@H](CC(C)C)C(=O)N[C@H](C(=O)N[C@@H](CCCCN)C(=O)NCC(=O)N[C@@H](CCCNC(=N)N)C(N)=O)C(C)C [GLP-1 peptide], the blood glucose (db/db mice) was “lowered blood glucose at 30 minutes”.

In the case of exendin-4 [reference compound], the “stimulation of insulin secretion in RINm cells” value (RINm cells) is reported as “stimulates insulin release”, the “24 hour cumulative food intake vs CNTO1996” value (wild type mice [1]) is reported as “statistically significant reduction in food intake” and the “area under the curve (AUC) of the ipGTT” value (wild type mice [2]) is reported as “statistically significant reduction in the AUC”. For the same compound, the “stomach content (percent of food remaining) 2 h after dosing vs CNTO1996” value (wild type mice [3]) was “statistically significant increase in stomach content”, the “24 hour cumulative food intake” value (GLP-1R−/− mice [4]) was “no effect on food intake” and the “gastric emptying 2 h after dosing” value (GLP-1R−/− mice [5]) was “no effect on gastric emptying”.

For CN=C(N)NC(=O)Nc1c(C)cccc1C [lidamidine], the “time in which 50% of the gastric contents were emptied” value (female beagle dogs) was 30.60 ± 6.47 min.

For GLP-1 (7-36) amide: GLP-1 (7-36) amide, the time action [6] is listed as “about 50 minutes”.
